Data: publication PMC11372839, “Unraveling the Potential of Vitamin B3-Derived Salts with a Salicylate Anion as Dermal Active Agents for Acne Treatment” (Molecular Pharmaceutics, 2024)
Like-named read-outs stand apart in the source and are kept apart here.

Experiments:
Solubility in PBS = conditions: for Solubility in PBS, Class: Pharmacopeia solubility class, PBS pH 7.4, 25 °C
Protocol: The solubility in PBS solution was determined by placing 1 g (±0.0001) of tested compound in a round-bottom flask and adding specific parts of the PBS solution in portions until full dissolution. The samples were vigorously stirred for at least 5 min before the addition of the next portion of PBS, and the systems were thermostated at 25 °C. Three repetitions of the measurement were performed for each of the compounds.
Most studies on the solubility of novel APIs are carried out with pure water, aqueous PBS solutions were much more preferred due to their higher similarity to intra- and intercellular media in epidermis, while envisaging their use in transdermal delivery and skin care applications.[60] […] The collected data are presented in Figure 8 (as well as in Table S6 in the Supporting Information).

Artemia franciscana = assay: Ecotoxicity toward aquatic life, Artoxkit M immobilization test; assay type: in vivo; conditions: for EC50: Artemia franciscana; for Class: acute toxicity rating scale by Fish and Wildlife Service
Protocol: To determine the EC50 parameter for compounds, tests were carried out on marine crustaceans—Artemia franciscana (A. franciscana). The methodology proposed in the Artoxkit M test (MicroBioTests Inc., Gent, Belgium) was developed according to the ASTM E1440-91 standard.
The hatching process was started first. For this purpose, 50 mg of cysts was transferred to the Petri dishes attached to the Artoxkit M set, which were then immersed in 10 mL of artificial seawater with a salinity of 35‰ (a medium for the development of the tested organisms, as well as a solvent for preparing solutions of the tested compounds) and placed at a temperature of 25 °C, with access to light (6000–10,000 lux) for 30 h. Then, 2 h before placing them on the Artoxkit M plates, 20 mg of spirulina was added to cultured artemias. In addition, 1 h before the analysis, the used seawater was oxygenated by passing a stream of air through the solution. To each of the four cells in a given row of a plate from the Artoxkit M kit, 1 mL of solution at the specified concentrations (or the appropriate medium in the case of a control) were introduced. In the first column of cells (a control sample and five selected concentrations), no less than 30 artemias were placed from previously prepared Petri dishes. Then, from the first cell in the first column, artemias were collected at the selected concentration and added to the next three cells in the selected row, 10 organisms per cell. After the organisms were introduced into the appropriate cells, the plates were covered with Parafilm and then closed with a plastic cap. The prepared kit was incubated at 25 °C and protected from light. Number of motionless organisms were counted after 24 and 48 h. Immobilization was then calculated (eq 1) in relation to the number of organisms at the start of the test: [drawing 1] 1
Next, the dependence between the effect and concentration of the tested compounds was plotted, and on this basis, an EC50 value was determined.

Candida albicans = assay: MIC and MFC determination, microdilution method; assay type: cell-based; conditions: for MIC: 24 h, read-out: MIC, C. albicans
Protocol: (§1) The antimicrobial activities of the compounds were tested against clinical strains of an aerobic Gram-negative bacterium—Pseudomonas aeruginosa (P. aeruginosa), facultative anaerobic Gram-positive bacteria—Staphylococcus aureus (S. aureus) and Staphylococcus epidermidis (S. epidermidis), anaerobic Gram-positive bacterium—Cutibacterium acnes (C. acnes), and yeast-like fungus—Candida albicans (C. albicans).
(§2) Aerobic and facultative anaerobic bacteria cultures were grown in Brain Heart Infusion broth (BHI, bioMerieux, France) at 35 °C ± 1 °C for 18 h, C. acnes cultures were grown in thioglycolate broth with resazurin (TGB, bioMerieux, France) at 35 ± 1 °C for 48 h, and yeast cultures were grown in Sabouraud dextrose broth (SDB, Merck, Germany) at 35 ± 1 °C for 24 h. After incubation, each culture was diluted in a suitable liquid medium: P. aeruginosa, S. aureus, and S. epidermidis—Mueller–Hinton broth (MHB; Oxoid, UK); C. acnes—TGB; and C. albicans—SDB, to obtain a final suspension containing about 10^6 CFU/mL.
(§3) The microdilution method was employed to determine the compounds’ MIC (Minimal Inhibitory Concentration) and MBC/MFC (Minimal Bactericidal Concentration/Minimal Fungicidal Concentration) against the tested bacterial and fungal strains.
(§4) The compounds were serially diluted (2-fold) in the respective media (P. aeruginosa, S. aureus, and S. epidermidis—MHB, C. acnes—TGB, and C. albicans—SDB in 96-well plates), and the microbial suspensions were added. The compounds were tested in the final concentration range of 4 096 to 0.125 μg/mL, and the final microbial inoculum was approximately 5 ×10^5 CFU/mL. The tests were incubated at 35 °C ± 1 °C for 18 h (P. aeruginosa, S. aureus, and S. epidermidis) or 24 h (C. albicans) or 48 h (C. acnes). C. acnes was incubated in an anaerobic atmosphere using a GENbag anaer (bioMerieux, France). Media (without the strains) added to the different concentrations of tested compounds and media inoculated with microbial suspension were used as a negative control and growth control, respectively.
(§5) The MIC was defined as the lowest concentration at which visible growth was inhibited. MBC and MFC concentrations were determined as an extension of the MIC test. […] The plates were incubated at 35 ± 1 °C for 18–72 h. C. acnes was incubated in an anaerobic atmosphere. The MBC/MFC was defined as the lowest concentration at which no growth was observed. All tests were performed in duplicate.

[1] = test system: Staphylococcus epidermidis; assay: MIC and MBC determination, microdilution method;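 for all read-outs here: column refers to Staphylococcus epidermidis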; assay type: cell-based; conditions: for MIC: 18 h, read-out: MIC, S. epidermidis; for MBC: read-out: MBC, S. epidermidis
Protocol: as §1, §2, §3, §4, §5

Staphylococcus aureus = assay: MIC and MBC determination, microdilution method; assay type: cell-based; conditions: for MIC: 18 h, read-out: MIC, S. aureus; for MBC: read-out: MBC, S. aureus
Protocol: as §1, §2, §3, §4, §5

Cutibacterium acnes = assay: MIC and MBC determination, microdilution method; assay type: cell-based
Protocol: as §1, §2, §3, §4, §5

Pseudomonas aeruginosa = assay: MIC and MBC determination, microdilution method; assay type: cell-based; conditions: for MIC: 18 h, read-out: MIC, P. aeruginosa
Protocol: as §1, §2, §3, §4, §5

[2] = Contact angle of aqueous solutions, sessile drop method on paraffin; assay type: physicochemical; conditions: aqueous solution, 25 °C
Protocol: The contact angle (CA) measurements were carried out using a DSA100S analyzer (Krüss, Germany, accuracy ±0.1°), at 25 °C. The determination of the contact angle was based on the sessile drop method, i.e., drops of the analyzed solution were deposited on a solid surface (paraffin). The images of the drops were taken with a CCD camera, digitized, and evaluated using Young–Laplace fitting. The CA was determined as the slope of the tangent line at the contact point between the 3 phases (solution, paraffin surface, and air).
In the case of seborrheic skin, which occurs among many people affected by acne, the epidermis is covered by a hydrophobic lipid layer, which impedes the penetration of active substances, especially those that are well soluble in water. In addition, ensuring proper drug absorption through the skin can also reduce the risk of side effects and increase the effectiveness of therapy.[72] The addition of surfactants, which improve the wettability of hydrophobic surfaces, can be a solution to this problem.[73],[74] […] Wettability analyses of aqueous solutions of the new APIs were carried out on paraffin, whose hydrophobicity is similar to that of the human skin.[75] Experiments were performed at concentrations corresponding to common NA and SAL contents in commercial formulations (0.25–1.00%).[67],[76],[77] Due to low solubilities of 5–7, tests for these salts were performed at concentrations of 0.25, 0.03, and 0.01%, respectively (please see Figure S43 in the Supporting Information).

[3] = Octanol–water partition coefficient, shake-flask method (OECD Test No. 107); assay type: physicochemical
Protocol: The octanol–water partition coefficients (KOW) of the synthesized products were estimated by the shake-flask method according to the OECD Test No. 107 guidelines (Partition Coefficient n-Octanol/Water: Shake-Flask Method). Measurements were performed using mutually saturated distilled water and 1-octanol in a glass vial containing a magnetic stir bar. First, the synthesized products were dissolved in distilled water (or 1-octanol) at a chosen concentration (0.01 mol per 1 L of octanol or water), and then proper amounts of the second solvent (octanol or water) were added. Subsequently, two duplicate runs were carried out with different solvent ratios: 4 mL of 1-octanol and 2 mL of water (2:1), 4 mL of 1-octanol and 4 mL of water (1:1), and 4 mL of 1-octanol and 8 mL of water ([…]). All vials were shaken at a constant temperature of 25 °C. After 24 h, all samples were centrifuged and the aqueous and octanolic phases were collected with a syringe. The concentrations of compounds in water were determined spectrophotometrically using a Rayleigh UV-1601 spectrophotometer (Beijing Beifen-Ruili Analytical, China) based on calibration curves made previously (at λmax = 262 nm) vs concentration for each substance. Two repetitions of each measurement were performed in a specific solvent ratio (1:1, 1:2, and 2:1). Finally, the log KOW was calculated as the average of six results collected for each compound.
The outermost layer of the skin (stratum corneum) contains around […] water, a relatively low amount compared to the rest of the human body. Given the hydrophobic nature of 1-octanol, it can be used as a simplified model for the stratum corneum.[50] The octanol–water partition coefficient (KOW) value represents the proportion between the concentrations of a substance in both liquid phases of a system composed of water and 1-octanol. […] The log KOW values are given in Figure 6 (exact values are provided in Table S4, Supporting Information).

[4] = parameters: method as in doi:10.1080/10826076.2015.1057642, PMID 22469554, PMID 31982561; conditions: frequently used topical acne agents; cited from earlier work
[5] = volume of PBS (pH 7.4) to dissolve 1 g, 25 °C
[6] = shake-flask, 25 °C, 24 h, average of six results, read-out: Octanol-water partition coefficient (log Kow)
[7] = toxicity range of EC50, read-out: Range

| Structure (SMILES) | Solubility in PBS, Class (Solubility in PBS) | Solubility in PBS, PBS [ml] (Solubility in PBS; [5]) | Class (Artemia franciscana) | MIC (Candida albicans) | MIC [1] | MBC [1] | MIC (Staphylococcus aureus) | MBC (Staphylococcus aureus) | MIC (Pseudomonas aeruginosa) | Contact angle ([2]; concentration 0.25%) | Contact angle ([2]; concentration 0.50%) | Contact angle ([2]; concentration 1.00%) | logP at 24 h [3, 6] | EC50 (Artemia franciscana; [7]) | also measured |
| --- | --- | --- | --- | --- | --- | --- | --- | --- | --- | --- | --- | --- | --- | --- | --- |
| NC(=O)c1cccnc1.O=C(O)c1ccccc1O [[NA][SAL], reference compound] | Sparingly Soluble (30-100) | 30 to 100 mL | Practically Nontoxic (100-1000) | 2050 µg/mL | 2050 µg/mL | 2050 µg/mL | 2050 µg/mL | 2050 µg/mL | 2050 µg/mL | 110.5 ° | 108.3 ° | 99.9 ° | – | – | EC50 (Artemia franciscana): 565 µg/mL; EC50 (Artemia franciscana; read-out: Range): 100 to 1000 µg/mL; MBC, C. acnes (Cutibacterium acnes; clinical strain, anaerobic, tested 4 096 to 0.125 μg/mL, b = out of range): did not show bactericidal activity; Contact angle ([2]; concentration 1.00%, listed as cocrystal): 100 ° |
| CC[n+]1cccc(C(N)=O)c1.O=C([O-])c1ccccc1O [compound 1] | Very Soluble (<1) | < 1 mL | Relatively Harmless (>1000) | – | 4100 µg/mL | – | 1020 µg/mL | – | – | 112.1 ° | 110.3 ° | 109.7 ° | -1.15 | > 1000 µg/mL | – |
| CCCCCCCCCCCCCC[n+]1cccc(C(N)=O)c1.O=C([O-])c1ccccc1O [compound 7] | Very Slightly Soluble (1000-10 000) | – | Practically Nontoxic (100-1000) | 16 µg/mL | 4 µg/mL | 4 µg/mL | 0.5 µg/mL | 0.5 µg/mL | 64 µg/mL | – | – | – | 1.34 | 100 to 1000 µg/mL | EC50 (Artemia franciscana; immobilization, motionless organisms counted after 24 and 48 h, 25 °C, read-out: EC50): 155 µg/mL; MFC (Candida albicans; read-out: MFC, C. albicans): 16 µg/mL; MIC (Cutibacterium acnes; Cutibacterium acnes, 48 h, read-out: MIC, C. acnes): 4 µg/mL; MBC (Cutibacterium acnes; Cutibacterium acnes, read-out: MBC, C. acnes): 4 µg/mL; MBC (Pseudomonas aeruginosa; read-out: MBC, P. aeruginosa): 64 µg/mL |
| CCCC[n+]1cccc(C(N)=O)c1.O=C([O-])c1ccccc1O [compound 2] | Very Soluble (<1) | < 1 mL | Relatively Harmless (>1000) | – | 2050 µg/mL | – | 1020 µg/mL | – | – | 102.7 ° | 104.3 ° | 103.9 ° | -0.7 | > 1000 µg/mL | – |
| NC(=O)c1cccnc1 [NA, nicotinamide, reference compound] | – | – | Relatively Harmless (>1000) | – | – | – | – | – | – | 112.7 ° | 110.7 ° | 110.6 ° | – | > 1000 µg/mL | Solubility in PBS, PBS [ml] (Solubility in PBS; pH 7.4): < 1 mL; logP at 24 h [3]: -0.66 |
| O=C(O)CCCCCCCC(=O)O [azelaic acid] | – | – | – | – | – | – | – | – | – | – | – | – | – | – | log KOW [4]: 1.42 |
